Source: PubChem BioAssay AID2060343 (Molecular Pharmacology Branch, DTP, NCI, 2025)
“And” between values parts separate entries of the source, which are not always exact repeats. Identical values can stand only once.

Tested on: 138582-337-R-J1-PDC spheroids with HUVEC/MSC, viability
Experiment: Anticancer human tumor 138582-337-R-J1-PDC patient-derived Merkel cell tumor cell line growth inhibition [IpAb]
Details: for viability, T/C: stronger effect = lower value; active = viability on the fitted dose curve at most 10% of control; inactive = the rest
Method in brief: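 Combinations with ipatasertib or abemaciclib were tested on tumour spheroids holding HUVEC (25%) and MSC (15%) alongside 60% malignant cells. Top concentration was at or near clinical Cmax (10 microM if undefined), descending in half-log steps.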

[1] = curve of first compound, second compound 0.01 µM
[2] = curve of first compound, second compound 0.0316 µM
[3] = curve of first compound, second compound 0.1 µM
[4] = curve of first compound, second compound 0.316 µM
[5] = curve of first compound, second compound 1 µM
[6] = second compound 0.01 µM, first compound 0.00949 µM
[7] = second compound 0.01 µM, first compound 0.03 µM
[8] = second compound 0.01 µM, first compound 0.0949 µM
[9] = second compound 0.01 µM, first compound 0.3 µM
[10] = second compound 0.0316 µM, first compound 0.00949 µM
[11] = second compound 0.0316 µM, first compound 0.03 µM
[12] = second compound 0.0316 µM, first compound 0.0949 µM
[13] = second compound 0.0316 µM, first compound 0.3 µM
[14] = second compound 0.1 µM, first compound 0.00949 µM
[15] = second compound 0.1 µM, first compound 0.03 µM
[16] = second compound 0.1 µM, first compound 0.0949 µM
[17] = second compound 0.1 µM, first compound 0.3 µM
[18] = second compound 0.316 µM, first compound 0.00949 µM
[19] = second compound 0.316 µM, first compound 0.03 µM
[20] = second compound 0.316 µM, first compound 0.0949 µM
[21] = second compound 0.316 µM, first compound 0.3 µM
[22] = second compound 1 µM, first compound 0.00949 µM
[23] = second compound 1 µM, first compound 0.03 µM
[24] = second compound 1 µM, first compound 0.0949 µM
[25] = second compound 1 µM, first compound 0.3 µM
[26] = second compound 0.1 µM, first compound 0.949 µM
[27] = second compound 0.1 µM, first compound 3 µM
[28] = second compound 0.316 µM, first compound 0.949 µM
[29] = second compound 0.316 µM, first compound 3 µM
[30] = second compound 1 µM, first compound 0.949 µM
[31] = second compound 1 µM, first compound 3 µM
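Note: spheroids exposed to compounds for seven days.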
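Throughout, for viability, T/C: 100% = DMSO vehicle control viability.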

CC(=O)c1c(C)c2cnc(Nc3ccc(N4CCNCC4)cn3)nc2n(C2CCCC2)c1=O + CCN1CCN(Cc2ccc(Nc3ncc(F)c(-c4cc(F)c5nc(C)n(C(C)C)c5c4)n3)nc2)CC1
inactive: viability, T/C (second compound 0.01 µM, first compound 0.000949 µM) 97.9% | viability, T/C (second compound 0.01 µM, first compound 0.003 µM) 91.1% | viability, T/C [6] 88.1% | viability, T/C [7] 92.5% | viability, T/C [8] 93.4% | viability, T/C [9] 86.6% | viability, T/C (second compound 0.0316 µM, first compound 0.000949 µM) 91.2% | viability, T/C (second compound 0.0316 µM, first compound 0.003 µM) 89.5% | viability, T/C [10] 79.7% | viability, T/C [11] 89% | viability, T/C [12] 88.3% | viability, T/C [13] 81.8% | viability, T/C (second compound 0.1 µM, first compound 0.000949 µM) 84.6% | viability, T/C (second compound 0.1 µM, first compound 0.003 µM) 91.5% | viability, T/C [14] 85.1% | viability, T/C [15] 88.7% | viability, T/C [16] 82% | viability, T/C [17] 75% | viability, T/C (second compound 0.316 µM, first compound 0.000949 µM) 93.6% | viability, T/C (second compound 0.316 µM, first compound 0.003 µM) 86.6% | viability, T/C [18] 85.3% | viability, T/C [19] 79.7% | viability, T/C [20] 87.6% | viability, T/C [21] 79.7% | viability, T/C (second compound 1 µM, first compound 0.000949 µM) 99.4% | viability, T/C (second compound 1 µM, first compound 0.003 µM) 102% | viability, T/C [22] 93.3% | viability, T/C [23] 88.6% | viability, T/C [24] 92.6% | viability, T/C [25] 84.7%
> 0.3 µM: IC50 [1] | IC50 [2] | IC50 [3] | IC50 [4] | IC50 [5]

Cn1cnc2c(F)c(Nc3ccc(Br)cc3Cl)c(C(=O)NOCCO)cc21 + CCN1CCN(Cc2ccc(Nc3ncc(F)c(-c4cc(F)c5nc(C)n(C(C)C)c5c4)n3)nc2)CC1
> 3 µM: IC50 [1] | IC50 [2] | IC50 [3] | IC50 [4]
inactive: viability, T/C [6] 102% | viability, T/C [7] 94.5% | viability, T/C [8] 75.3% | viability, T/C [9] 81.2% | viability, T/C (second compound 0.01 µM, first compound 0.949 µM) 94% | viability, T/C (second compound 0.01 µM, first compound 3 µM) 93.1% | viability, T/C [10] 94.8% | viability, T/C [11] 91% | viability, T/C [12] 67.1% | viability, T/C [13] 79.6% | viability, T/C (second compound 0.0316 µM, first compound 0.949 µM) 86.8% | viability, T/C (second compound 0.0316 µM, first compound 3 µM) 88.3% | viability, T/C [14] 102% | viability, T/C [15] 88.2% | viability, T/C [16] 78.3% | viability, T/C [17] 68.7% | viability, T/C [26] 76.9% | viability, T/C [27] 73.1% | viability, T/C [18] 88.8% | viability, T/C [19] 90.8% | viability, T/C [20] 83% | viability, T/C [21] 66% | viability, T/C [28] 72.9% | viability, T/C [29] 56.3% | viability, T/C [22] 96.1% | viability, T/C [23] 90.2% | viability, T/C [24] 78% | viability, T/C [25] 74.5% | viability, T/C [30] 73.1% | viability, T/C [31] 37.1%
1.88 µM: IC50 [5]

Cn1cnc2c(F)c(Nc3ccc(Br)cc3Cl)c(C(=O)NOCCO)cc21 + CC(C)NCC(C(=O)N1CCN(c2ncnc3c2C(C)CC3O)CC1)c1ccc(Cl)cc1
1.76 µM: IC50 [4]
0.328 µM: IC50 [5]
active: viability, T/C (second compound 10 µM, first compound 3 µM) 3.49%
> 3 µM: IC50 [3]
< 0.00949 µM: IC50 (curve of first compound, second compound 10 µM)
inactive: viability, T/C [14] 97.8% | viability, T/C [15] 88.1% | viability, T/C [16] 85.2% | viability, T/C [17] 83.8% | viability, T/C [26] 101% | viability, T/C [27] 105% | viability, T/C [18] 74.9% | viability, T/C [19] 73.3% | viability, T/C [20] 69.6% | viability, T/C [21] 55% | viability, T/C [28] 56.6% | viability, T/C [29] 46.7% | viability, T/C [22] 58.9% | viability, T/C [23] 68.2% | viability, T/C [24] 56% | viability, T/C [25] 47.2% | viability, T/C [30] 42.4% | viability, T/C [31] 22.4% | viability, T/C (second compound 3.16 µM, first compound 0.00949 µM) 57.1% | viability, T/C (second compound 3.16 µM, first compound 0.03 µM) 64% | viability, T/C (second compound 3.16 µM, first compound 0.0949 µM) 42.5% | viability, T/C (second compound 3.16 µM, first compound 0.3 µM) 33.4% | viability, T/C (second compound 3.16 µM, first compound 0.949 µM) 27.5% | viability, T/C (second compound 3.16 µM, first compound 3 µM) 11.3% | viability, T/C (second compound 10 µM, first compound 0.00949 µM) 46.1% | viability, T/C (second compound 10 µM, first compound 0.03 µM) 46.7% | viability, T/C (second compound 10 µM, first compound 0.0949 µM) 33.6% | viability, T/C (second compound 10 µM, first compound 0.3 µM) 24.9% | viability, T/C (second compound 10 µM, first compound 0.949 µM) 18.6%
0.0637 µM: IC50 (curve of first compound, second compound 3.16 µM)

C=CC(=O)N1CCN(c2nc(=O)n(-c3c(C)ccnc3C(C)C)c3nc(-c4c(O)cccc4F)c(F)cc23)C(C)C1 (configuration not stated)
inactive: viability, T/C (compound 0.0316 µM) 101% and 99.3% | viability, T/C (compound 0.1 µM) 104% and 97% | viability, T/C (compound 0.316 µM) 113% and 121% | viability, T/C (compound 1 µM) 120% and 108% | viability, T/C (compound 3.16 µM) 149% and 144% | viability, T/C (compound 10 µM) 187% and 181%
> 10 µM: IC50 (curve of compound)
